Experimental data taken from ChEMBL document CHEMBL3885881, “DrugMatrix”.

Organism: Rattus norvegicus
Assay: DrugMatrix - Regimen: Daily Repeat
Type: toxicity, organism-based, Sprague-Dawley
Design: regimen Daily Repeat, gender Male, age 6-8 weeks
Settings: in vivo, po, route oral GAVAGE, vehicle 100 % WATER; for ABSOLUTE BASOPHIL / ABSOLUTE EOSINOPHIL / ABSOLUTE LYMPHOCYTE / ABSOLUTE MONOCYTE / ABSOLUTE SEGMENTED NEUTROPHIL / BASOPHIL / EOSINOPHIL / ERYTHROCYTE COUNT / HEMATOCRIT / HEMOGLOBIN / LEUKOCYTE COUNT / LYMPHOCYTE / MEAN CORPUSCULAR HEMOGLOBIN / MEAN CORPUSCULAR HEMOGLOBIN CONCENTRATION / MEAN CORPUSCULAR VOLUME / MONOCYTE / NEUTROPHIL / NUCLEATED RED BLOOD CELLS / PLATELET COUNT: tissue Blood; for ALANINE AMINOTRANSFERASE / ALBUMIN / ALKALINE PHOSPHATASE / ASPARTATE AMINOTRANSFERASE / BLOOD UREA NITROGEN / CARBON DIOXIDE / CHLORIDE / CHOLESTEROL / CREATINE PHOSPHOKINASE / CREATININE / GLUCOSE / LACTATE DEHYDROGENASE / LIPASE / PHOSPHORUS / POTASSIUM / SODIUM / TOTAL BILIRUBIN / TOTAL PROTEIN / URIC ACID: tissue Plasma
[1] = 0 mg/kg, 72 h, dose level Control, time 3 day
[2] = 0 mg/kg, 120 h, dose level Control, time 5 day
[3] = 1 mg/kg, 72 h, dose level Low, time 3 day

CC[C@H](C)[C@H]1O[C@]2(C=C[C@@H]1C)C[C@@H]1C[C@@H](C/C=C(\C)[C@@H](O[C@H]3C[C@H](OC)[C@@H](O[C@H]4C[C@H](OC)[C@@H](O)[C@H](C)O4)[C@H](C)O3)[C@@H](C)/C=C/C=C3\CO[C@@H]4[C@H](O)C(C)=C[C@@H](C(=O)O1)[C@]34O)O2.CO[C@H]1C[C@H](O[C@H]2[C@H](C)O[C@@H](O[C@@H]3/C(C)=C/C[C@@H]4C[C@@H](C[C@]5(C=C[C@H](C)[C@@H](C(C)C)O5)O4)OC(=O)[C@@H]4C=C(C)[C@@H](O)[C@H]5OC/C(=C\C=C\[C@@H]3C)[C@]54O)C[C@@H]2OC)O[C@@H](C)[C@@H]1O [ABAMECTIN]
ABSOLUTE BASOPHIL [1]: 0 CELLS/uL
ABSOLUTE EOSINOPHIL [1]: 40 CELLS/uL
ABSOLUTE LYMPHOCYTE [1]: 13599.5 CELLS/uL
ABSOLUTE MONOCYTE [1]: 239.33 CELLS/uL
ABSOLUTE SEGMENTED NEUTROPHIL [1]: 1021.17 CELLS/uL
BASOPHIL [1]: 0%
EOSINOPHIL [1]: 0.33%
ERYTHROCYTE COUNT [1]: 5.71 x10E6/uL
HEMATOCRIT [1]: 36.35%
HEMOGLOBIN [1]: 14.05 G/DL
LEUKOCYTE COUNT [1]: 14.9 x10E3/uL
LYMPHOCYTE [1]: 91%
MEAN CORPUSCULAR HEMOGLOBIN [1]: 24.62 pg
MEAN CORPUSCULAR HEMOGLOBIN CONCENTRATION [1]: 38.65 G/DL
MEAN CORPUSCULAR VOLUME [1]: 63.7 fL
MONOCYTE [1]: 1.5%
NEUTROPHIL [1]: 7.17%
NUCLEATED RED BLOOD CELLS [1]: 0.33 /100WBC
PLATELET COUNT [1]: 1225.5 x10E3/uL
ALANINE AMINOTRANSFERASE [1]: 48.5 u/L
ALBUMIN [1]: 4.18 G/DL
ALKALINE PHOSPHATASE [1]: 390.83 u/L
ASPARTATE AMINOTRANSFERASE [1]: 89 u/L
BLOOD UREA NITROGEN [1]: 14.83 mg/dL
CARBON DIOXIDE [1]: 24.83 mmol/L
CHLORIDE [1]: 100.83 MEQ/L
CHOLESTEROL [1]: 72.5 mg/dL
CREATINE PHOSPHOKINASE [1]: 503 u/L
CREATININE [1]: 0.2 mg/dL
GLUCOSE [1]: 163 mg/dL
LACTATE DEHYDROGENASE [1]: 316.83 u/L
LIPASE [1]: 9.83 u/L
PHOSPHORUS [1]: 11.57 mg/dL
POTASSIUM [1]: 6.16 MEQ/L
SODIUM [1]: 142.62 MEQ/L
TOTAL BILIRUBIN [1]: 0.2 mg/dL
TOTAL PROTEIN [1]: 5.8 G/DL
URIC ACID [1]: 1.65 mg/dL
ABSOLUTE BASOPHIL [2]: 0 CELLS/uL
ABSOLUTE EOSINOPHIL [2]: 21 CELLS/uL
ABSOLUTE LYMPHOCYTE [2]: 14288.5 CELLS/uL
ABSOLUTE MONOCYTE [2]: 205.33 CELLS/uL
ABSOLUTE SEGMENTED NEUTROPHIL [2]: 968.5 CELLS/uL
BASOPHIL [2]: 0%
EOSINOPHIL [2]: 0.17%
ERYTHROCYTE COUNT [2]: 5.83 x10E6/uL
HEMATOCRIT [2]: 36.53%
HEMOGLOBIN [2]: 14.4 G/DL
LEUKOCYTE COUNT [2]: 15.48 x10E3/uL
LYMPHOCYTE [2]: 92%
MEAN CORPUSCULAR HEMOGLOBIN [2]: 24.72 pg
MEAN CORPUSCULAR HEMOGLOBIN CONCENTRATION [2]: 39.43 G/DL
MEAN CORPUSCULAR VOLUME [2]: 62.68 fL
MONOCYTE [2]: 1.33%
NEUTROPHIL [2]: 6.5%
NUCLEATED RED BLOOD CELLS [2]: 0.17 /100WBC
PLATELET COUNT [2]: 1280.5 x10E3/uL
ALANINE AMINOTRANSFERASE [2]: 50 u/L
ALBUMIN [2]: 4.28 G/DL
ALKALINE PHOSPHATASE [2]: 380.17 u/L
ASPARTATE AMINOTRANSFERASE [2]: 82.67 u/L
BLOOD UREA NITROGEN [2]: 15.33 mg/dL
CARBON DIOXIDE [2]: 27.17 mmol/L
CHLORIDE [2]: 100.33 MEQ/L
CHOLESTEROL [2]: 60.67 mg/dL
CREATINE PHOSPHOKINASE [2]: 441.5 u/L
CREATININE [2]: 0.16 mg/dL
GLUCOSE [2]: 146 mg/dL
LACTATE DEHYDROGENASE [2]: 189.33 u/L
LIPASE [2]: 9.17 u/L
PHOSPHORUS [2]: 11.67 mg/dL
POTASSIUM [2]: 6.86 MEQ/L
SODIUM [2]: 142.33 MEQ/L
TOTAL BILIRUBIN [2]: 0.2 mg/dL
TOTAL PROTEIN [2]: 6.12 G/DL
URIC ACID [2]: 1.82 mg/dL
ABSOLUTE BASOPHIL [3]: 0 CELLS/uL
ABSOLUTE EOSINOPHIL [3]: 0 CELLS/uL
ABSOLUTE LYMPHOCYTE [3]: 13707 CELLS/uL
ABSOLUTE MONOCYTE [3]: 388 CELLS/uL
ABSOLUTE SEGMENTED NEUTROPHIL [3]: 1005 CELLS/uL
BASOPHIL [3]: 0%
EOSINOPHIL [3]: 0%
ERYTHROCYTE COUNT [3]: 5.4 x10E6/uL
HEMATOCRIT [3]: 34.53%
HEMOGLOBIN [3]: 13.23 G/DL
LEUKOCYTE COUNT [3]: 15.1 x10E3/uL
LYMPHOCYTE [3]: 91%
MEAN CORPUSCULAR HEMOGLOBIN [3]: 24.47 pg
MEAN CORPUSCULAR HEMOGLOBIN CONCENTRATION [3]: 38.3 G/DL
MEAN CORPUSCULAR VOLUME [3]: 63.93 fL
MONOCYTE [3]: 2.67%
NEUTROPHIL [3]: 6.33%
NUCLEATED RED BLOOD CELLS [3]: 0 /100WBC
PLATELET COUNT [3]: 1310 x10E3/uL
ALANINE AMINOTRANSFERASE [3]: 54 u/L
ALBUMIN [3]: 4.17 G/DL
ALKALINE PHOSPHATASE [3]: 413 u/L
ASPARTATE AMINOTRANSFERASE [3]: 81.33 u/L
BLOOD UREA NITROGEN [3]: 14.33 mg/dL
CARBON DIOXIDE [3]: 26.67 mmol/L
CHLORIDE [3]: 100.33 MEQ/L
CHOLESTEROL [3]: 79.67 mg/dL
CREATINE PHOSPHOKINASE [3]: 332.67 u/L
CREATININE [3]: 0.19 mg/dL
GLUCOSE [3]: 158 mg/dL
LACTATE DEHYDROGENASE [3]: 294.67 u/L
LIPASE [3]: 9 u/L
PHOSPHORUS [3]: 11.97 mg/dL
POTASSIUM [3]: 6.52 MEQ/L
SODIUM [3]: 142.57 MEQ/L
TOTAL BILIRUBIN [3]: 0.23 mg/dL
TOTAL PROTEIN [3]: 5.73 G/DL
URIC ACID [3]: 1.57 mg/dL
